Results: patent publication EP0762893B1, “TREATMENT OF PLASMA” (SUOMEN PUNAINEN RISTI VERIPALVELU, priority 1994, dated 1995)

Key:
F VIII = assay: Inactivation of F VIII activity during MB photochemical treatment of 2 ml pooled plasma samples (chromogenic substrate assay); format: biochemical; conditions: 1 µmol/l of MB, TL-M 115/33 fluorescent tubes for 1 h
fibrinogen = assay: Inactivation of clottable fibrinogen during MB photochemical treatment of 2 ml pooled plasma samples (thromboplastin time assay); format: biochemical; conditions: 1 µmol/l of MB, TL-M 115/33 fluorescent tubes for 1 h
[1] = Disappearance of ascorbate and urate from plasma during MB photochemical treatment (HPLC); conditions: compared with ascorbate
Experimental: To study the effect of added ascorbate, we used a plasma pool with a low ascorbate level (35 µmol/l). […] Ascorbate was added to the plasma at different concentrations before MB that was used at a final concentration of 1 µmol/l. Plasma samples of 2 ml were illuminated in 2.5 ml cryotubes (Falcon) with TL-M 115/33 RS fluorescent tubes (Philips) for 1 h. A transparent cooling plate with fluid circulation was placed between the plasma samples and the fluorescent tubes to keep the temperature of the plasma below 22 °C. The irradiation power at the level of the plasma tubes was 1.9 mW/cm^2 at 595-695 nm (40 000 lux). After illumination, the samples were divided into portions of 0.5 ml and frozen.
To study the fate of ascorbate during MB treatment, we followed the concentration of ascorbate at different stages of the treatment and compared it to urate, another antioxidant considered important in plasma. Plasma was illuminated with the fluorescent tubes in 2 ml portions as in Example 1, and the illumination was interrupted at different periods. Urate was measured with the same HPLC method as ascorbate.

SMILES: CN(C)c1ccc2nc3ccc(=[N+](C)C)cc-3sc2c1 [MB, methylene blue]
- extent of inactivation of factor VIII (F VIII): ~40%
- extent of inactivation of fibrinogen (fibrinogen): about 50%
- absorbing form of MB after dilution: quantitatively restored

SMILES: O=c1[nH]c(=O)c2[nH]c(=O)[nH]c2[nH]1 [Urate, urate]
- disappearance of urate from plasma [1]: clearly more slowly than ascorbate
